According to paper PMC10255569, “Discovery of Peptidic Ligands against the SARS-CoV-2 Spike Protein and Their Use in the Development of a Highly Sensitive Personal Use Colorimetric COVID-19 Biosensor” (ACS Sensors, 2023):
Non-standard residues stand in square brackets, D forms with d. Residues, ends and D or L forms follow the SMILES beside them. *: point of attachment. Biotin = O=C1N[C@H]2[C@H](CS[C@H]2CCCCC(=O)*)N1; Phe(3,5-F2) = N[C@@H](Cc1cc(F)cc(F)c1)C(=O)O; hCit = NC(=O)NCCCC[C@H](N)C(=O)O; Aad = N[C@@H](CCCC(=O)O)C(=O)O; dPhg = N[C@@H](C(=O)O)c1ccccc1; Nva = CCC[C@H](N)C(=O)O; AEEA = NCCOCCOCC(=O)O; Ac3c = NC1(C(=O)O)CC1

Tested on: SARS-CoV-2 spike protein active trimer
Assay type: binding

SMILES	binding to the S-protein active trimer (in words)	Kd [nM]	binding affinity, times higher than CoV6-2 [times]	binding affinity, times stronger than the 13-mer reference peptide [times]
COc1ccc(C[C@H](NC(=O)[C@H](N)Cc2c[nH]cn2)C(=O)N[C@@H](CCCNC(=N)N)C(=O)N[C@@H](C(=O)N[C@H](CCC(=O)O)C(=O)N[C@H](Cc2c[nH]cn2)C(=O)N[C@H](CCSC)C(=O)N[C@@H](CC(C)C)C(=O)NCCOCCOCC(=O)NCCOCCOCC(=O)N[C@@H](CCCCNC(=O)CCCC[C@@H]2SC[C@@H]3NC(=O)N[C@@H]32)C(N)=O)c2ccccc2)cc1 [L9-1] (H-[dH]Y(Me)R[dPhg][dE][dH][dM]L[AEEA][AEEA]K(Biotin)-NH2)	bind reasonably well			
CCC[C@H](NC(=O)[C@H](CCCCNC(N)=O)NC(=O)[C@H](CCCNC(=N)N)NC(=O)[C@H](Cc1ccc(OC)cc1)NC(=O)[C@H](N)Cc1c[nH]cn1)C(=O)N[C@@H](CCCNC(=N)N)C(=O)N[C@@H](Cc1cc(F)cc(F)c1)C(=O)N[C@@H](Cc1ccccc1)C(=O)N[C@@H](CCCC(=O)O)C(=O)NCCOCCOCC(=O)NCCOCCOCC(=O)N[C@@H](CCCCNC(=O)CCCC[C@@H]1SC[C@@H]2NC(=O)N[C@@H]21)C(N)=O [L10-2] (H-[dH]Y(Me)R[hCit][Nva]R[Phe(3,5-F2)]F[Aad][AEEA][AEEA]K(Biotin)-NH2)	bind reasonably well	25	8	~3
CCC[C@H](NC(=O)[C@H](CCC(N)=O)NC(=O)[C@@H](N)Cc1cc(F)cc(F)c1)C(=O)N[C@@H](CCCNC(=N)N)C(=O)N[C@H](CC(N)=O)C(=O)N[C@@H](CCC)C(=O)N[C@H](CC(N)=O)C(=O)NC1(C(=O)NCCOCCOCC(=O)NCCOCCOCC(=O)N[C@@H](CCCCNC(=O)CCCC[C@@H]2SC[C@@H]3NC(=O)N[C@@H]32)C(N)=O)CC1 [L10-3] (H-[Phe(3,5-F2)]Q[Nva]R[dN][Nva][dN][Ac3c][AEEA][AEEA]K(Biotin)-NH2)	bind reasonably well			
CCC[C@H](NC(=O)[C@H](CCCCNC(N)=O)NC(=O)[C@H](Cc1ccc(OC)cc1)NC(=O)[C@H](N)Cc1c[nH]cn1)C(=O)N[C@@H](CCCNC(=N)N)C(=O)N[C@@H](Cc1cc(F)cc(F)c1)C(=O)N[C@@H](Cc1ccccc1)C(=O)N[C@@H](CCCC(=O)O)C(=O)NCCOCCOCC(=O)NCCOCCOCC(=O)N[C@@H](CCCCNC(=O)CCCC[C@@H]1SC[C@@H]2NC(=O)N[C@@H]21)C(N)=O [L10-4] (H-[dH]Y(Me)[hCit][Nva]R[Phe(3,5-F2)]F[Aad][AEEA][AEEA]K(Biotin)-NH2)	bind reasonably well			
CC(C)C[C@H](NC(=O)CNC(=O)[C@H](Cc1ccccc1)NC(=O)[C@@H](NC(=O)[C@@H](N)[C@@H](C)O)C(C)C)C(=O)N[C@@H](CC(N)=O)C(=O)N[C@H](C(=O)N[C@@H](Cc1c[nH]c2ccccc12)C(=O)N[C@@H](CCCCN)C(=O)N[C@@H](CCCNC(=N)N)C(=O)N[C@@H](Cc1ccc(O)cc1)C(=O)N[C@@H](CO)C(=O)N[C@@H](CCCCN)C(=O)NCCOCCOCC(=O)NCCOCCOCC(=O)N[C@@H](CCCCNC(=O)CCCC[C@@H]1SC[C@@H]2NC(=O)N[C@@H]21)C(N)=O)C(C)C [Reference Peptide, reference compound] (H-TVFGLNVWKRYSK[AEEA][AEEA]K(Biotin)-NH2)		79		
